Test results as given in paper PMC11187126, “Structure and dynamics of the pyroglutamylated RF-amide peptide QRFP receptor GPR103” (Nature Communications, 2024).
Read-outs that look alike come from different tables or passages of the source. No end group written: not given here.

Target: T1, GPR103 F25N-termA (Homo sapiens, UniProt Q96P65, F25A)
T1 construct: we used human full-length QRFPR-encoding plasmids; expressed in transfected cells; host or cells: HEK293 cells, pCAGGS vector
T1 sequence (Q96P65 1-431 F25A): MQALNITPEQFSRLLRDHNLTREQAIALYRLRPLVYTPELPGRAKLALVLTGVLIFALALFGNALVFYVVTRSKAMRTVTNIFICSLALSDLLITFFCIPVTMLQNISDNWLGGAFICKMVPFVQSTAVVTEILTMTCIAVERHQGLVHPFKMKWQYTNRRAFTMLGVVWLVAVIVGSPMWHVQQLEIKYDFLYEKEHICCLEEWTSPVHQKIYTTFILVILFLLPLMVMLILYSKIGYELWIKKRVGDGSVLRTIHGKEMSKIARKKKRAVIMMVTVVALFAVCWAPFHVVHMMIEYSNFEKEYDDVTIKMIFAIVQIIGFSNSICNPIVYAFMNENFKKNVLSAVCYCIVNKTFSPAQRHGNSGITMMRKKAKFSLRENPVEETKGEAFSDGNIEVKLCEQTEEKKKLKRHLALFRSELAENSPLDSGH
Test: TGFα shedding assay; Exp. level >WT (1:1)
Type: cell-based
Experimental: For the TGFα shedding assay and the flow cytometry analysis, we used human full-length QRFPR-encoding plasmids. Specifically, GPR103 was N-terminally modified with an HA signal sequence followed by a FLAG epitope and then a flexible linker ([…]; the FLAG epitope is underlined) and inserted into the pCAGGS vector. Plasmid encoding GPR103 mutants were generated using Quickchange Site-Directed Mutagensis kit (Agilent).
The TGFα shedding assay was performed as described previously with minor modifications. Plasmid transfection was performed in a 6-well plate with a mixture of 500 ng (per well in a 6-well plate) AP-TGFα-encoding plasmid and 200 ng GPR103-encoding plasmid. After 1-day culture, the transfected cells were harvested by trypsinization, pelleted by centrifugation at 190 × g for 5 min, and washed once with 5 mM HEPES (pH 7.4)-containing Hank’s Balanced Salt Solution (HBSS). After centrifugation, the cells were resuspended in 8 mL of the HEPES-containing HBSS. The cell suspension was seeded in a 96-well culture plate (cell plate) at a volume of 90 μL (per well hereafter) and incubated in a 37 °C incubator with 5% CO2 for 30 min. […] After spinning the cell plates at 190 × g for 2 min, 80 μL of conditioned media was transferred to an empty 96-well plate (conditioned media (CM) plate). Then, 80 μL of AP reaction solution (10 mM p-nitrophenylphosphate (p-NPP), 120 mM Tris-HCl (pH 9.5), 40 mM NaCl, and 10 mM MgCl2) was dispensed into the cell plates and the CM plates. Absorbance at 405 nm of the plates was measured using a microplate reader (SpectraMax 340 PC384, Molecular Devices) before and after 1-h incubation at room temperature. Ligand-induced AP-TGFα release was calculated by subtracting spontaneous AP-TGFα release signal from ligand-induced AP-TGFα release signal. The AP-TGFα release signals were fitted to a four-parameter sigmoidal concentration–response curve, using the Prism 10 software (GraphPad Prism). For each replicate experiment, the pEC50 parameter (negative logarithmic values of EC50 values) of the individual GPR103 mutants were normalized to that of the wild-type GPR103 performed in parallel, and resulting ∆pEC50 values were used to denote ligand response activity of the mutants. […]
Exp. le vel: WT (1:5 0)Exp. le vel: WT (1:5 0)Exp. le vel: WT (1:5 0)Exp. le vel: WT (1:2 0)Exp. le vel: WT (1:2 0)Exp. le vel: WT (1:1 0) […]
L1 4N - t e r mA F2 5N - t e r mA I 2 6N - t e r mA Y 2 9N - t e r mA C 9 82 .5 7A T10 22 .6 1A Exp . l eve l: WT (1 :5)Exp . l evel : >WT (1 :1)Exp. le vel: WT (1:2 0)Exp. le vel: WT (1:2 0)Exp. le vel: WT (1:5 0)Exp . l eve l: WT (1 :1) […]
Exp. le vel: WT (1:1 0)Exp. le vel: WT (1:2 0) C 1 1 83 .2 5AExp. le vel: WT (1:5 0)Exp. le vel: WT (1:5 0)Exp. le vel: WT (1:2 0)Exp . l eve l: WT (1 :5) […]
Exp. le vel: WT (1:5 0)Exp. le vel: WT (1:1 0)Exp. le vel: WT (1:5 0) E203ECL2AExp . l evel : >WT (1 :1)Exp. le vel: WT (1:5 0)Exp. le vel: WT (1:5 0) […]
Exp . l eve l: WT (1 :1) F28Exp. le vel: WT (1:5 0) C 2 8 56 .4 7AExp. le vel: WT (1:2 0) WExp. le vel: WT (1:2 0) F28Exp. le vel: WT (1:5 0)Exp . l evel : >WT (1 :1) […]
Exp. le vel: WT (1:5 0)Exp. le vel: WT (1:5 0) C 3 2 77 .4 8AExp . l eve l: WT (1 :5)Exp . l evel : >WT (1 :1)Exp . l evel : >WT (1 :1) […]
Suppl eme nt ary Figure 1 | Mutational analysis of GPR103. […]
mutants. Data are presented as mean values ± SEM, normally n=3-5; dots), each performed in triplicate. b-d Cell-surface expression (b) and QRFP26-in-duced activation of GPR103 (c, d) were analyzed by the flow cytometry and the TGFα shedding assay, respectively. From the concentration–response curves (a), Emax (c) and ΔpEC50 (d) values relative to the wild type were calculated. Colors in the mutant bars indicate an expression level matching to that of titrated wild type. Statistical analyses were performed using the ordinary one-way ANOVA followed by Dunnett tests with the expression-matched […]

Emax (Exp. #1): 108.31 % WT
Emax (Exp. #2): 103.77 % WT
Emax (Exp. #3): 108.41 % WT
Emax (mean, read-out: Emax): 107%
EC50 (n = 3): 0.0794 µM
Emax (n = 3, read-out: Emax): 110 ± 1.2%
Substance: TSGPLGNLAEELNGYSRKKGGFSFRF-NH2 [QRFP26]
